Laboratory results as given in patent US20260365634A1, “HERBICIDAL PYRAZOLE COMPOUNDS” (SYNGENTA CROP PROTECTION AG, priority 2022, published 2026).

What was measured:
Format in all cases: in vivo
Conditions in all cases: 250 g/ha, evaluated after 13 days
[1] = system: Amaranthus palmeri (AMAPA); assay: Pre-emergence herbicidal glasshouse test
Description: (§1) Seeds of a variety of test species are sown in standard soil in pots Amaranthus palmeri (AMAPA), Amaranthus retoflexus (AMARE), Echinochloa crus-galli (ECHCG), Ipomoea hederacea (IPOHE), Setaria faberi (SETFA). After cultivation for one day (pre-emergence) or after 8 days cultivation (post-emergence) under controlled conditions in a glasshouse (at 24/16 °C, day/night; 14 hours light; 65% humidity), the plants are sprayed with an aqueous spray solution derived from the formulation of the technical active ingredient in acetone/water (50:50) solution containing 0.5% Tween 20 (polyoxyethelyene sorbitan monolaurate, CAS RN 9005-64-5). Compounds are applied at 250 g/ha unless otherwise stated. The test plants are then grown in a glasshouse under controlled conditions in a glasshouse (at 24/16 °C, day/night; 14 hours light; 65% humidity) and watered twice daily. After 13 days for pre and post-emergence, the test is evaluated for the percentage damage caused to the plant. The biological activities are shown in the following table on a five-point scale (5=81-100%; 4=61-80%; 3=41-60%; 2=21-40%; 1=0-20%).

[2] = system: Echinochloa crus-galli (ECHCG); assay: Pre-emergence herbicidal glasshouse test
Description: as §1

[3] = system: Amaranthus retoflexus (AMARE); assay: Pre-emergence herbicidal glasshouse test
Description: as §1

[4] = system: Ipomoea hederacea (IPOHE); assay: Pre-emergence herbicidal glasshouse test
Description: as §1

[5] = system: Amaranthus palmeri (AMAPA); assay: Post-emergence herbicidal glasshouse test
Description: as §1

[6] = system: Echinochloa crus-galli (ECHCG); assay: Post-emergence herbicidal glasshouse test
Description: as §1

[7] = system: Amaranthus retoflexus (AMARE); assay: Post-emergence herbicidal glasshouse test
Description: as §1

[8] = system: Ipomoea hederacea (IPOHE); assay: Post-emergence herbicidal glasshouse test
Description: as §1

[9] = system: Setaria faberi (SETFA); assay: Pre-emergence herbicidal glasshouse test
Description: as §1

[10] = system: Setaria faberi (SETFA); assay: Post-emergence herbicidal glasshouse test
Description: as §1

Compound | percentage damage caused to the plant (five-point scale), AMAPA [1] | percentage damage caused to the plant (five-point scale), ECHCG [2] | percentage damage caused to the plant (five-point scale), AMARE [3] | percentage damage caused to the plant (five-point scale), IPOHE [4] | percentage damage caused to the plant (five-point scale), AMAPA [5] | percentage damage caused to the plant (five-point scale), ECHCG [6] | percentage damage caused to the plant (five-point scale), AMARE [7] | percentage damage caused to the plant (five-point scale), IPOHE [8] | percentage damage caused to the plant (five-point scale), SETFA [9] | percentage damage caused to the plant (five-point scale), SETFA [10]
FC(F)c1cc(Cc2ncc(Cl)cn2)n(CCC2CCOC2)n1 (stereo not drawn) [Compound 1.001] | 2 (21-40%) | 1 (0-20%) | 1 (0-20%) | 2 (21-40%) | 1 (0-20%) | 1 (0-20%) | 1 (0-20%) | 2 (21-40%) |  | 
FC(F)(F)CCn1nc(C(F)(F)F)cc1Cc1ncc(Cl)cn1 [Compound 1.010] | 5 (81-100%) | 5 (81-100%) | 5 (81-100%) | 5 (81-100%) | 4 (61-80%) | 4 (61-80%) | 5 (81-100%) | 3 (41-60%) |  | 
CS(=O)(=O)CCn1nc(C(F)F)cc1Cc1ncc(Cl)cn1 [Compound 1.023] | 1 (0-20%) | 1 (0-20%) | 1 (0-20%) | 2 (21-40%) | 2 (21-40%) | 1 (0-20%) | 2 (21-40%) | 3 (41-60%) | 1 (0-20%) | 1 (0-20%)
FC(F)c1cc(Cc2ncc(Cl)cn2)n(CCCC(F)(F)F)n1 [Compound 1.002] | 5 (81-100%) | 1 (0-20%) | 5 (81-100%) | 3 (41-60%) | 1 (0-20%) | 1 (0-20%) | 2 (21-40%) | 2 (21-40%) |  | 
CCCCn1nc(C(F)F)cc1Cc1ncc(Cl)cn1 [Compound 1.011] | 5 (81-100%) | 2 (21-40%) | 5 (81-100%) | 3 (41-60%) | 2 (21-40%) | 1 (0-20%) | 2 (21-40%) | 2 (21-40%) |  | 
CC(C)(C#N)CCCn1nc(C(F)(F)F)cc1Cc1ncc(Cl)cn1 [Compound 1.029] | 4 (61-80%) | 3 (41-60%) | 5 (81-100%) | 5 (81-100%) | 3 (41-60%) | 3 (41-60%) | 4 (61-80%) | 3 (41-60%) | 3 (41-60%) | 2 (21-40%)
CCCCn1nc(C(F)(F)Cl)cc1Cc1ncc(Cl)cn1 [Compound 1.020, 2-[[2-butyl-5-[chloro(difluoro)methyl]pyrazol-3-yl]methyl]-5-chloro-pyrimidine] | 5 (81-100%) | 4 (61-80%) | 5 (81-100%) | 2 (21-40%) | 4 (61-80%) | 2 (21-40%) | 5 (81-100%) | 2 (21-40%) | 4 (61-80%) | 1 (0-20%)
C=Cn1nc(C(F)F)cc1Cc1ncc(Cl)cn1 [Compound 1.037] | 5 (81-100%) | 1 (0-20%) | 5 (81-100%) | 3 (41-60%) | 3 (41-60%) | 2 (21-40%) | 4 (61-80%) | 2 (21-40%) | 1 (0-20%) | 2 (21-40%)
FC(F)c1cc(Cc2ncc(Cl)cn2)n(CCC(F)(F)F)n1 [Compound 1.007] | 5 (81-100%) | 2 (21-40%) | 5 (81-100%) | 4 (61-80%) | 3 (41-60%) | 2 (21-40%) | 4 (61-80%) | 3 (41-60%) |  | 
FC(F)CCCn1nc(C(F)(F)F)cc1Cc1ncc(Cl)cn1 [Compound 1.005, 5-chloro-2-[[2-(4,4-difluorobutyl)-5-(trifluoromethyl)pyrazol-3-yl]methyl]pyrimidine] | 5 (81-100%) | 4 (61-80%) | 5 (81-100%) | 5 (81-100%) |  | 4 (61-80%) | 5 (81-100%) | 3 (41-60%) | 5 (81-100%) | 4 (61-80%)
FC(F)c1cc(Cc2ncc(Cl)cn2)n(CCC2CC2)n1 [Compound 1.003] | 4 (61-80%) | 1 (0-20%) | 4 (61-80%) | 1 (0-20%) | 1 (0-20%) | 1 (0-20%) | 1 (0-20%) | 3 (41-60%) |  | 
FC(F)CCCn1nc(C(F)F)cc1Cc1ncc(Cl)cn1 [Compound 1.004] | 4 (61-80%) | 1 (0-20%) | 4 (61-80%) | 2 (21-40%) | 3 (41-60%) | 1 (0-20%) | 3 (41-60%) | 2 (21-40%) |  | 
